Results reported in US8586755B2, “Substituted nicotinamides as KCNQ2/3 modulators” (Grünenthal GmbH, priority 2009, dated 2013).

Target: T1, KCNQ2/3 channels (Homo sapiens, UniProt O43525+O43526)
T1 construct: expressed in transfected cells
Experiment: Fluorescence assay using a voltage sensitive dye (fluorimetry)
Assay type: cell-based
Conditions: CHO-K1 cells expressing KCNQ2/3 channels; for EC50: agonistic activity; for Emax: retigabine 50 μM = 100%, read-out: Fluorimetry % efficacy (retigabine 50 μM = 100%)
Protocol: Pharmacological Experiments Fluorescence Assay Using a Voltage Sensitive Dye
Human CHO-K1 cells expressing KCNQ2/3 channels are cultivated adherently at 37° C., 5% CO2 and 95% humidity in cell culture bottles (e.g. 80 cm^2 TC flasks, Nunc) with DMEM-high glucose (Sigma Aldrich, D7777) including 10% FCS (PAN Biotech, e.g. 3302-P270521) or alternatively MEM Alpha Medium (1×, liquid, Invitrogen, #22571), 10% fetal calf serum (FCS) (Invitrogen, #10270-106, heat-inactivated) and the necessary selection antibiotics.
Before being sown out for the measurements, the cells are washed with a 1×DPBS buffer without Ca^2+/Mg^2+ (e.g. Invitrogen, #14190-094) and detached from the bottom of the culture vessel by means of Accutase (PAA Laboratories, #L11-007) (incubation with Accutase for 15 min at 37° C.). The cell count then present is determined using a CASY™ cell counter (TCC model, Schärfe System) in order subsequently to apply, depending on the density optimization for the individual cell line, 20,000-30,000 cells/well/100 μl of the described nutrient medium to 96-well measuring plates of the Corning™ CellBIND™ type (Flat Clear Bottom Black Polystyrene Microplates, #3340). Incubation is then carried out for one hour at room temperature, without gassing or adjusting the humidity, followed by incubation for 24 hours at 37° C., 5% CO2 and 95% humidity.
The voltage-sensitive fluorescent dye from the Membrane Potential Assay Kit (Red™ Bulk format part R8123 for FLIPR, MDS Analytical Technologies™) is prepared by dissolving the contents of a vessel Membrane Potential Assay Kit Red Component A in 200 ml of extracellular buffer (ES buffer, 120 mM NaCl, 1 mM KCl, 10 mM HEPES, 2 mM CaCl2, 2 mM MgCl2, 10 mM glucose; pH 7.4). After removal of the nutrient medium, the cells are washed with 200 μl of ES buffer, then covered with a layer of 100 μl of the dye solution prepared above and incubated for 45 min at room temperature with the exclusion of light.
The fluorescence measurements are carried out with a BMG Labtech FLUOstar™ BMG Labtech NOVOstar™ or BMG Labtech POLARstar™ instrument (525 nm excitation, 560 nm emission, Bottom Read mode). After incubation of the dye, 50 μl of the test substances in the desired concentrations, or 50 μl of ES buffer for control purposes, are introduced into separate cavities of the measuring plate and incubated for 30 min at room temperature while being shielded from light. The fluorescence intensity of the dye is then measured for 5 min and the fluorescence value F1 of each well is thus determined at a given, constant time. 15 μl of a […] KCl solution ([…]) are then added to each well. The change in fluorescence is subsequently measured until all the relevant measured values have been obtained (mainly 5-30 min). At a given time after KCl application, a fluorescence value F2 is determined, in this case at the time of the fluorescence peak.
For calculation, the fluorescence intensity F2 is compared with the fluorescence intensity F1, and the agonistic activity of the target compound on the potassium channel is determined therefrom. F2 and F1 are calculated as follows: […]
In order to determine whether a substance has agonistic activity,
A substance has an agonistic activity on the potassium channel when
[formula] it is possible to conclude that a target compound has agonistic activity if an increase in
[formula] is to be observed as the dosage of the target compound increases.
Calculations of EC50 values are carried out with the aid of ‘Prism v4.0’ software (GraphPad Software™).

Row | Compound | EC50 [nM] | Emax [%]
1 | O=C(NCC1CCCCCC1)c1cccnc1CCCSc1ccc(F)cc1 [compound 29, N-(Cycloheptyl-methyl)-2-[3-[(4-fluorophenyl)sulfanyl]-propyl]-pyridine-3-carboxylic acid amide] | 275 | 159
2 | O=C(NCc1cccs1)c1cccnc1SCCCc1ccc2ccccc2c1 [compound 102, 2-(3-Naphthalen-2-yl-propylsulfanyl)-N-(thiophen-2-yl-methyl)-pyridine-3-carboxylic acid amide] | 456 | 111
3 | O=C(NCC1CC2CCC1C2)c1cccnc1SCCCc1cc(F)cc(C(F)(F)F)c1 (stereo not drawn) [compound 69, N-(5-Bicyclo[2.2.1]heptanyl-methyl)-2-[3-[3-fluoro-5-(trifluoromethyl)-phenyl]-propylsulfanyl]-pyridine-3-carboxylic acid amide] | 140 | 259
4 | COc1ccc(CCCSc2ncccc2C(=O)NCC2CC3CCC2C3)cc1 (stereo not drawn) [compound 56, N-(5-Bicyclo[2.2.1]heptanyl-methyl)-2-[3-(4-methoxyphenyl)-propylsulfanyl]-pyridine-3-carboxylic acid amide] | 1010 | 251
5 | CC(CCc1cccc(C(F)(F)F)c1)Sc1ncccc1C(=O)NCc1ccc(F)cc1 (stereo not drawn) [compound 132, N-[(4-Fluorophenyl)-methyl]-2-[[1-methyl-3-[3-(trifluoromethyl)phenyl]-propyl]sulfanyl]-pyridine-3-carboxylic acid amide] | 82 | 120
6 | COC(CNC(=O)c1cccnc1SCCCc1ccc(F)cc1)C(C)(C)C (stereo not drawn) [compound 182, 2-[3-(4-Fluorophenyl)-propylsulfanyl]-N-(2-methoxy-3,3-dimethyl-butyl)-pyridine-3-carboxylic acid amide] | 366 | 110
7 | CC(CCc1cccc(C(F)(F)F)c1)Sc1ncccc1C(=O)NCCC(C)(C)C (stereo not drawn) [compound 149, N-(3,3-Dimethyl-butyl)-2-[[1-methyl-3-[3-(trifluoromethyl)phenyl]-propyl]sulfanyl]-pyridine-3-carboxylic acid amide] | 93 | 181
8 | CC(C)CCNC(=O)c1cccnc1SC(C)CCc1cccc(C(F)(F)F)c1 (stereo not drawn) [compound 203, N-(3-Methyl-butyl)-2-[[1-methyl-3-[3-(trifluoromethyl)phenyl]-propyl]sulfanyl]-pyridine-3-carboxylic acid amide] | 20 | 233
9 | COCCNC(=O)c1cccnc1SCCCc1ccc(F)cc1 [compound 172, 2-[3-(4-Fluorophenyl)-propylsulfanyl]-N-(2-methoxy-ethyl)-pyridine-3-carboxylic acid amide] | 1050 | 196
10 | Cc1ccc(CNC(=O)c2cccnc2SCCC(F)(F)c2ccc(F)cc2)o1 [compound 191, 2-[[3,3-Difluoro-3-(4-fluorophenyl)-propyl]sulfanyl]-N-[(5-methyl-furan-2-yl)-methyl]-pyridine-3-carboxylic acid amide] | 37 | 202
11 | COC(C)CCNC(=O)c1cccnc1SCCC(F)(F)c1ccc(F)cc1 (stereo not drawn) [compound 193, 2-[[3,3-Difluoro-3-(4-fluorophenyl)-propyl]sulfanyl]-N-(3-methoxy-butyl)-pyridine-3-carboxylic acid amide] | 371 | 206
12 | O=C(NCc1ccc2ccccc2c1)c1cccnc1SCCCc1ccc(F)cc1 [compound 136, 2-[3-(4-Fluorophenyl)-propylsulfanyl]-N-(naphthalen-2-yl-methyl)-pyridine-3-carboxylic acid amide] |  | 28
13 | CC(CSc1ncccc1C(=O)NCc1cccs1)Sc1ccccc1 (stereo not drawn) [compound 16] | 74 | 176
14 | O=C(NCC1CC2CCC1C2)c1cccnc1CCCS(=O)(=O)c1cccc(C(F)(F)F)c1 (stereo not drawn) [compound 32, N-(5-Bicyclo[2.2.1]heptanyl-methyl)-2-[3-[[3-(trifluoromethyl)phenyl]sulfonyl]-propyl]-pyridine-3-carboxylic acid amide] | 3130 | 191
15 | O=C(NCC1Cc2ccccc2C1)c1cccnc1SCCCc1ccc(F)cc1 [compound 120, N-(2,3-Dihydro-1H-inden-2-yl-methyl)-2-[3-(4-fluorophenyl)-propylsulfanyl]-pyridine-3-carboxylic acid amide] | 307 | 61
16 | O=C(NCC1CCCCCC1)c1cccnc1SCCCc1ccc(F)cc1 [compound 41, N-(Cycloheptyl-methyl)-2-[3-(4-fluorophenyl)-propylsulfanyl]-pyridine-3-carboxylic acid amide] | 157 | 159
17 | Cc1ccc(CNC(=O)c2cccnc2SCCCc2ccc(F)cc2)o1 [compound 175, 2-[3-(4-Fluorophenyl)-propylsulfanyl]-N-[(5-methyl-furan-2-yl)-methyl]-pyridine-3-carboxylic acid amide] | 126 | 173
18 | CC(C)(C)CCNC(=O)c1cccnc1SCCC(F)(F)c1cccc(C(F)(F)F)c1 [compound 166, 2-[[3,3-Difluoro-3-[3-(trifluoromethyl)phenyl]-propyl]sulfanyl]-N-(3,3-dimethyl-butyl)-pyridine-3-carboxylic acid amide] | 46 | 206
19 | CC(CCc1cccc(F)c1)Sc1ncccc1C(=O)NCc1ccc(F)cc1 (stereo not drawn) [compound 201, N-[(4-Fluorophenyl)-methyl]-2-[[3-(3-fluorophenyl)-1-methyl-propyl]sulfanyl]-pyridine-3-carboxylic acid amide] | 40 | 128
20 | O=C(NCC1C2CCC1CC2)c1cccnc1SCCC(F)(F)c1ccc(F)c(F)c1 (stereo not drawn) [compound 210, N-(7-Bicyclo[2.2.1]heptanyl-methyl)-2-[[3-(3,4-difluoro-phenyl)-3,3-difluoro-propyl]sulfanyl]-pyridine-3-carboxylic acid amide] | 14 | 276
21 | O=C(O)CCNC(=O)c1cccnc1SCCC(F)(F)c1ccc(F)cc1 [compound 197, 3-[[2-[[3,3-Difluoro-3-(4-fluorophenyl)-propyl]sulfanyl]-pyridine-3-carbonyl]amino]-propionic acid] | 14700 | 128
22 | O=C(NCc1ccc(F)cc1)c1cccnc1SCCC(F)(F)c1ccc(F)c(F)c1 [compound 204, 2-[[3-(3,4-Difluoro-phenyl)-3,3-difluoro-propyl]sulfanyl]-N-[(4-fluorophenyl)-methyl]-pyridine-3-carboxylic acid amide] | 11 | 125
23 | CC1(C)CC1CNC(=O)c1cccnc1SCCCc1ccc(F)cc1 (stereo not drawn) [compound 38, N-[(2,2-Dimethyl-cyclopropyl)-methyl]-2-[3-(4-fluorophenyl)-propylsulfanyl]-pyridine-3-carboxylic acid amide] | 144 | 176
24 | O=C(NCC1CC2CCC1C2)c1cccnc1SCCCc1ccc(F)cc1F (stereo not drawn) [compound 62, N-(5-Bicyclo[2.2.1]heptanyl-methyl)-2-[3-(2,4-difluoro-phenyl)-propylsulfanyl]-pyridine-3-carboxylic acid amide] | 182 | 274
25 | CC(CSc1ncccc1C(=O)NCc1cccs1)Sc1cccc(C(F)(F)F)c1 (stereo not drawn) [compound 20, N-(Thiophen-2-yl-methyl)-2-[2-[[3-(trifluoromethyl)phenyl]sulfanyl]-propylsulfanyl]-pyridine-3-carboxylic acid amide] | 49 | 174
26 | O=C(CCSc1ncccc1C(=O)NCC1CC2CCC1C2)c1ccccc1 (stereo not drawn) [compound 44, N-(5-Bicyclo[2.2.1]heptanyl-methyl)-2-[(3-oxo-3-phenyl-propyl)sulfanyl]-pyridine-3-carboxylic acid amide] | 2960 | 167
